Experimental data published in patent publication US20080260858A1, “Universal Procoagulant” (The Board of Trustees of the University of Illnois, priority 2005, published 2008).
Like-named read-outs stand apart in the source and are kept apart here.

Columns and labels:
pooled normal plasma [1] = test: aPTT clotting assay; assay type: biochemical, human; conditions: metal ion with NTA-lipids (100 μM lipid)
Method: (§1) The modified aPTT reagent contained varying concentrations of the indicated metal salts, NTA-lipids (100 μM lipid), 0.08% (w/v) sodium azide, and 16 mM Hepes buffer, pH 7.4.
aPTT assays were performed with modified aPTT reagents containing varying concentrations of NiSO4, CoCl2, CuSO4, ZnCl2, FeSO4, CdCl2, CrCl2, AgNO3 or MnCl2 in the presence of NTA-lipids (FIG. 12C). […] Co^2+ and Zn^2+ some activity (see FIG. 12C). […] Ni^2+ performed substantially better in this assay than did Cu^2+.
aPTT clotting assay—aPTT clotting assays were also carried out in a model ST4 coagulometer (Diagnostica Stago). The aPTT assays were performed by pipetting 50 μl of an aPTT reagent and 50 μl pooled normal plasma into a coagulometer cuvette and incubating the mixture for 3 min at 37° C. 50 μl prewarmed 25 mM CaCl2 was then pipetted into the cuvette and the time to clot formation was recorded.

pooled normal plasma [2] = test: PT clotting assay with modified thromboplastin reagents; assay type: biochemical, human; conditions: for Concentration of TF that yields a 50 sec. clot time: His-tagged sTF with Ni-NTA-DOGS/PCPSPE (SUV with 10 mol % Ni-NTA-DOGS), rTF with PCPS
Method: Thromboplastin reagents containing TF and phospholipids were prepared and diluted to various concentrations of TF. The diluted thromboplastin reagents were then used in the PT assay (FIG. 4). The four modified thromboplastin reagents were made as follows: 1. 100 ng/ml rTF relipidated in PCPS vesicles (30 μM), 2. […] The thromboplastin reagents were diluted in TA (50 mM Tris-HCl buffer, pH 7.5, 0.1% bovine serum albumin, 0.1% NaN3) to varying concentrations of TF.
as §1
Thromboplastin reagents—To prepare a conventional thromboplastin reagent, rTF was relipidated into phospholipid vesicles composed of 20 mol % PS, 80 mol % PC (rTF/PCPS) at a 8700:1 molar ratio of phospholipid to rTF as described. rTF/PCPS preparations were then diluted to the desired final rTF concentration in TBSA (50 mM Tris-HCl buffer, pH 7.5, 100 mM NaCl, 0.1% bovine serum albumin, 0.1% NaN3).
(§2) PT clotting assay—PT assays were performed in a model ST4 coagulometer (Diagnostica Stago) by pipetting 50 μl of 25 mM CaCl2 and 50 μl diluted thromboplastin reagent into a coagulometer cuvette and allowing the mixture to warm to 37° C. for 2 min. Clotting was then initiated by pipetting 50 μl pre-warmed, pooled normal plasma into the cuvette and the time to clot formation recorded.

VIIa [3] = target: T1, VIIa (Homo sapiens, UniProt P08709); test: Allosteric activation of VIIa (chromogenic assay); assay type: biochemical; conditions: compared to sTF and rTF/PCPS; data not shown
T1 construct: VIIa or factor VIIa means coagulation factor VIIa (active enzyme); purchased American Diagnostica
Method: Measurement of Allosteric Activation of VIIa—The ability of TF to allosterically activate factor VIIa was carried out measuring the enzymatic activity of factor VIIa by a chromogenic assay. […] The reaction was initiated by the addition of the chromogenic substrate, Chromozym® t-PA (ChtPA) in a flat bottom, 96-well plate. […] Change in A405 was monitored at ambient temperature in a VERSAmax microplate reader (Molecular Devices), reading every 30 seconds for 20 minutes.

VIIa [4] = target: T2, VIIa (Homo sapiens, UniProt P08709); test: Kd for VIIa binding to TF (X activation rate as readout)
T2 construct: VIIa or factor VIIa means coagulation factor VIIa (active enzyme); purchased American Diagnostica
T2 sequence (P08709 61-212): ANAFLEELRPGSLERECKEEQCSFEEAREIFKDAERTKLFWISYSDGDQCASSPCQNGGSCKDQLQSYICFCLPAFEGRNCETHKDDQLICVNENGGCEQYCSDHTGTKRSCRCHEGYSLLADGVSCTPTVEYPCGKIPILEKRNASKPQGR
T2 sequence (P08709 213-466): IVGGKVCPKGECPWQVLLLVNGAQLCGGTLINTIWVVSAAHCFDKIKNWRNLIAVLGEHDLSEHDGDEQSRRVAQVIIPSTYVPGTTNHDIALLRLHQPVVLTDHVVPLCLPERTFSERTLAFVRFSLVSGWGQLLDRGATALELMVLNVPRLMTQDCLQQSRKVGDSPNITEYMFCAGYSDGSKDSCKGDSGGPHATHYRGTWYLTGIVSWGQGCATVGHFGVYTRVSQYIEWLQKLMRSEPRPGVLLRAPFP
Method: When VIIa binds to TF, its rate of X activation increases dramatically, so this can be used as a convenient readout for TF:VIIa complex formation. […] Therefore, when the isolated TF ectodomain was attached to the membrane surface via interaction with metal-chelating lipids, its VIIa binding ability was indistinguishable from membTF that spanned the lipid bilayer.
Measurement of the Kd for VIIa binding to TF—The binding affinity of VIIa for various forms of TF was measured using the TF-dependent increase in the rate of X activation as the readout for TF:VIIa complex formation. Activation of X by the TF:VIIa complex was measured by adapting the continuous chromogenic assay of Fiore et al.. Reaction mixtures containing Vila and either rTF/PCPS or sTF+SUVs were prepared in HBSAC. Reactions were initiated by adding a mixture of X and the chromogenic substrate, S-2222, in a flat bottom, 96-well plate. Change in A405 was monitored at ambient temperature in a VERSAmax microplate reader (Molecular Devices), sampling every 15 sec for 20 min. Initial rates of X activation were determined by fitting a second-order polynomial to the A405 data as described. The quadratic ligand binding equation was fit to the rate data as described to derive apparent Kd values for the binding of VIIa to TF. For experiments using relipidated rTF, typical reaction mixtures containing 0.25 μM VIIa and 20 nM X in HBSAC were incubated with increasing concentrations of rTF/PCPS.

factor-deficient plasmas = test: PT assay with factor-deficient plasmas; assay type: biochemical, human; conditions: 3 μg/ml sTF(His)6 with 100 μM 15% Ni-lipid, or commercial reagent
Excerpt: A major goal was to create a soluble form of TF that can function as a thromboplastin reagent in the PT assays. […] This reagent was then compared in PT assays to a commercially available thromboplastin reagent, STA-Neoplastine CI Plus (Diagnostica Stago). Clotting times with the two reagents were compared using pooled normal plasma as well as a number of factor-deficient plasmas (FIG. 6). (The latter were deficient in factors V, VII, VIII, IX, X, XI, XII, prekallikrein (PK), or high molecular weight kininogen (HK)).
as §2

[5] = test system: pooled normal human plasma; test: Clotting assay with immobilized lipids; assay type: biochemical; conditions: 200 nmol dried NiPCPSPE per well; 4800 nM
Method: Mixtures of DOGS-NTA-Ni and phospholipids were dried-down in the wells of a polystyrene coagulometer cuvette, the cuvettes were washed to remove any non-immobilized lipid, and then sTF-5AA-(His)6 was added to the wells. Clotting tests were subsequently conducted by adding calcium ions and plasma to wells. […] Control experiments were conducted using other lipid compositions, which were all dried down onto the cuvette well at a single amount of lipid per well (200 nmol).
Clotting assay with immobilized lipids—Lipid mixtures in chloroform were first dried down in a borosilicate glass test tube under a gentle stream of dry nitrogen gas to remove the solvent, after which the dried lipids were redissolved in n-hexane at a total lipid concentration of 0.3 to 5.3 mM. Complete lipid mixtures were termed NiPCPSPE and consisted of 10% DOGS-NTA-Ni, 12.5% PS, 30% PE, and 47.5% PC. […]
Each well of an ST4 cuvette received 150 μl of lipid solution in hexane (containing 50 to 800 nmol total lipid per well). […] A 50 μl aliquot of 25 mM CaCl2 was added per well and the cuvettes were incubated for 2 min at 37° C., after which a 50 μl aliquot of pre-warmed (37° C.) pooled normal human plasma was added and the time to clot formation was measured.

X activation by VIIa = target: T3, X activation by VIIa (Homo sapiens, UniProt P08709); test: Factor X activation using liposomes; assay type: biochemical; conditions: sTF-5AA-(His)6 with PCPS liposomes, or sTF with NiPCPS liposomes
T3 construct: VIIa or factor VIIa means coagulation factor VIIa (active enzyme); purchased American Diagnostica
Method: A stringent test of TF:VIIa function is its ability to support the activation of its natural protein substrate, X. This requires that TF be incorporated into a suitable phospholipid membrane (i.e., one containing negatively charged phospholipids). […] The ability of various forms of TF to support the activation of X was compared under equivalent concentrations of enzyme (500 pM VIIa), cofactor (4 pM TF) and liposomes (50 μM total lipid).
Factor X activation using liposomes. […] At varying times, 20 μl aliquots were removed into a 96-well plate containing 100 μl Stop Buffer 1 (40 mM Mes-NaOH pH 5.8, 12 mM EDTA, 50 mM NaCl, 0.25% Triton X-100, 0.1% NaN3, 0.012% Antifoam C) at 4° C. After warming the stopped reactions to room temperature, Xa was detected by adding 60 μl of 1.5 mM Spectrozyme Xa in HBSAC plus 0.6 M Tricine-NaOH, pH 8.4 and quantifying change in A405. Amounts of Xa generated were determined by comparison to a standard curve with purified Xa.

VIIa [6] = target: T2, VIIa; conditions: rTF relipidated into PCPS vesicles; literature [4]; read-out: Kd for VIIa binding; cited from earlier work
[7] = ± SEM, sTF and rTF with PCPS, sTF-(His)6 with Ni-NTA-DOGS/PCPSPE (SUV with 15 mol % Ni-NTA-DOGS), read-out: Kd.app for VIIa binding

**Q.** Which “activity in aPTT assay” value (pooled normal plasma [1]) does the source give for `[Cl-].[Cl-].[Co+2]` [Co^2+, CoCl2] here?
**A.** some activity

**Q.** What about the “PT clotting time shortened to” value (pooled normal plasma [2]; metal ion added to modified thromboplastin reagent, NTA-lipids, 30 ng/ml sTF-5AA-(His)6) of the same molecule?
**A.** less than 100 sec

**Q.** For `O=S(=O)([O-])[O-].[Cu+2]` [Cu^2+, CuSO4], which “activity in aPTT assay” value (pooled normal plasma [1]) is on record?
**A.** dramatically shortened the clotting time

**Q.** Which “activity in aPTT assay” value (pooled normal plasma [1]) does the source give for `O=S(=O)([O-])[O-].[Ni+2]` [Ni^2+, NiSO4] here?
**A.** dramatically shortened the clotting time

**Q.** For `[Cl-].[Cl-].[Zn+2]` [Zn^2+, ZnCl2], which “activity in aPTT assay” value (pooled normal plasma [1]) is on record?
**A.** some activity

**Q.** And the “activity in PT assay” value (pooled normal plasma [2]; metal ion with NTA-lipids (100 μM lipid), 30 ng/ml sTF-5AA-(His)6)?
**A.** some activity

**Q.** With “sTF(His)6: oligohistidine-tagged sTF; replaces the final two amino acids of sTF with six histidine residues” as the molecule, how does the “ability to allosterically activate VIIa” value (VIIa [3]) read?
**A.** able to fully allosterically activate VIIa

**Q.** And the “procoagulant activity compared with sTF” value (pooled normal plasma [2]; PT assay, 10% Ni-lipids)?
**A.** dramatically higher than sTF

**Q.** And the “Concentration of TF that yields a 50 sec. clot time” value (pooled normal plasma [2]; PT assay)?
**A.** 45 ng/mL

**Q.** And the Kd (VIIa [4]; read-out: Kd for VIIa binding to the his-tagged sTF variants, 15% Ni-lipid)?
**A.** 0.169 nM

**Q.** And the Kd (VIIa [4]; [7])?
**A.** 0.169 ± 0.015 nM

**Q.** What about the “PT clotting times with plasmas deficient in factors V, VII or X” value (factor-deficient plasmas) of the same molecule?
**A.** prolonged clotting times

**Q.** What about the “PT sensitivity to deficiencies in clotting factors of the intrinsic pathway (factors VIII, IX, XI, XII, PK, or HK)” value (factor-deficient plasmas) of the same molecule?
**A.** insensitive

**Q.** For “sTF: soluble tissue factor, a truncated, soluble form of tissue factor that does not have the membrane-spanning domain nor the cytoplasmic domain [reference compound]”, which “clotting times compared with sTF-5AA-(His)6” value [5] is on record?
**A.** much longer clotting times

**Q.** What about the “rates of X activation by VIIa, control combinations” value (X activation by VIIa) of the same molecule?
**A.** negligible rates of X activation

**Q.** And the Kd (VIIa [4]; sTF, read-out: Kd for VIIa binding)?
**A.** 7 nM

B1: rTF: recombinant, membrane-anchoring tissue factor; rTF/PCPS is rTF relipidated into 20 mol % PS, 80 mol % PC vesicles (protein, UniProt P13726 1-295, looked up)
chain: METPAWPRVPRPETAVARTLLLGWVFAQVAGASGTTNTVAAYNLTWKSTNFKTILEWEPKPVNQVYTVQISTKSGDWKSKCFYTTDTECDLTDEIVKDVKQTYLARVFSYPAGNVESTGSAGEPLYENSPEFTPYLETNLGQPTIQSFEQVGTKVNVTVEDERTLVRRNNTFLSLRDVFGKDLIYTLYYWKSSSSGKKTAKTNTNEFLIDVDKGENYCFSVQAVIPSRTVNRKSTDSPVECMGQEKGEFREIFYIIGAVVFVVIILVIILAISLHKCRKAGVGQSWKENSPLNVS
modifications: full-length relipidated in PS/PC vesicles
notes: recombinant, membrane-anchoring tissue factor; rTF/PCPS is rTF relipidated into 20 mol % PS, 80 mol % PC vesicles
**Q.** For B1, which “Concentration of TF that yields a 50 sec. clot time” value (pooled normal plasma [2]; PT assay) is on record?
**A.** 0.7 ng/mL

**Q.** What about the Kd (VIIa [6]) of the same molecule?
**A.** < 0.05 nM

**Q.** And the “affinity of VIIa for rTF/PCPS relative to sTF” value (VIIa [4])?
**A.** approximately 100 fold

**Q.** What about the Kd (VIIa [4]; [7]) of the same molecule?
**A.** 0.04 ± 0.005 nM
